The target in this test is T1, CHK1 (Homo sapiens, UniProt O14757).
T1 construct: His; purchased Invitrogen
T1 sequence (O14757 1-476): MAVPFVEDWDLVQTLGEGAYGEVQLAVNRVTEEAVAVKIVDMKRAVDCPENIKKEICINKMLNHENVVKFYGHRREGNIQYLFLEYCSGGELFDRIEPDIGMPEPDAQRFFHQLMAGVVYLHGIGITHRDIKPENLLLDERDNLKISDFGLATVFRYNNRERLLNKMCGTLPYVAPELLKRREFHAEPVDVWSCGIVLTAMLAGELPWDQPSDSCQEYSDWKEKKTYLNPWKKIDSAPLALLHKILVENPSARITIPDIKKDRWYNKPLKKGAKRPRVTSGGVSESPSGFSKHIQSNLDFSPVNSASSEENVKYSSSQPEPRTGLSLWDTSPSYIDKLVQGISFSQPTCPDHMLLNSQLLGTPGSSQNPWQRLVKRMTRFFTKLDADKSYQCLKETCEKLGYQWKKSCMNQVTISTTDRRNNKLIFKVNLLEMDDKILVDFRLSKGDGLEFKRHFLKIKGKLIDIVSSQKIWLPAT
The experiment in a line: CHK1 Enzyme Assay (phosphorylation of Chktide peptide, 33P-ATP filter assay). The test is classed as biochemical. The settings on record: 12.5 nM His-CHK1, 0.01 mM ATP, 40 minutes at 30° C.; read-out: CHK1 Enzyme Activity (IC50 range). The gist of the method: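 Filter-binding radiometric readout of 33P incorporation into Chktide (14.8 μM), after a 40 min, 30 °C reaction at pH 7.5 (50 mM Hepes-NaOH, 0.1 mg/mL BSA). The reaction contained 12.5 nM His-tagged CHK1, inhibitor and 0.01 mM cold ATP plus labelled ATP.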

Data on 24 compounds can be found in patent US9604975B2, “Indolyl-pyridone derivatives having checkpoint kinase 1 inhibitory activity” (Vernalis (R&D) Ltd., priority 2009, dated 2017).

`CCN(CC)CCOc1ccc2[nH]c(-c3cc(NC(=O)c4cnn(Cc5ccc(C(C)C)cc5)c4)c[nH]c3=O)cc2c1` [Example 155, 1-(4-Isopropylbenzyl)-1H-pyrazole-4-carboxylic acid {5-[5-(2-diethylaminoethoxy)-1H-indol-2-yl)-6-oxo-1,6-dihydropyridin-3-yl}-amide]: the IC50 (usually the concentration that gives 50% inhibition) was less than 100 nM.

On to `CN(C)CCCOc1ccc2[nH]c(-c3cc(NC(=O)c4cnn(Cc5ccc(C(C)(C)C)cc5)c4)c[nH]c3=O)cc2c1` [Example 156, 1-(4-tert-butylbenzyl)-1H-pyrazole-4-carboxylic acid {5-[5-(3-dimethylaminopropoxy)-1H-indol-2-yl)-6-oxo-1,6-dihydropyridin-3-yl}-amide], for which the IC50 is less than 100 nM.

As to `CC(C)c1ccc(Cn2cc(C(=O)Nc3c[nH]c(=O)c(-c4cc5cc(OCCCN(C)C)ccc5[nH]4)c3)cn2)cc1` [Example 157, 1-(4-Isopropylbenzyl)-1H-pyrazole-4-carboxylic acid {5-[5-(3-dimethylaminopropoxy)-1H-indol-2-yl)-6-oxo-1,6-dihydropyridin-3-yl}-amide], the 50% inhibitory concentration (IC50) was less than 100 nM.

`NCCOc1cccc2[nH]c(-c3cc(NC(=O)c4cnn(Cc5ccccc5)c4)c[nH]c3=O)cc12` [Example 158, 1-Benzyl-1H-pyrazole-4-carboxylic acid {5-[4-(2-amino-ethoxy)-1H-indol-2-yl]-6-oxo-1,6-dihydro-pyridin-3-yl}-amide]: the half-maximal inhibitory concentration (IC50) was less than 100 nM.

For `CN(C)CCOc1cccc2[nH]c(-c3cc(NC(=O)c4cnn(Cc5ccccc5)c4)c[nH]c3=O)cc12` [Example 159, 1-Benzyl-1H-pyrazole-4-carboxylic acid {5-[4-(2-dimethylamino-ethoxy)-1H-indol-2-yl]-6-oxo-1,6-dihydro-pyridin-3-yl}-amide], the IC50 was less than 100 nM.

As for `C[C@@H](c1ccccc1)n1cc(C(=O)Nc2c[nH]c(=O)c(-c3cc4ccccc4[nH]3)c2)cn1` [Example 160, 1-((S)-1-Phenyl-ethyl)-1H-pyrazole-4-carboxylic acid [5-(1H-indol-2-yl)-6-oxo-1,6-dihydro-pyridin-3-yl]-amide], the IC50 was in the range of 100 to 500 nM.

For `C[C@H](c1ccccc1)n1cc(C(=O)Nc2c[nH]c(=O)c(-c3cc4ccccc4[nH]3)c2)cn1` [Example 161, 1-((R)-1-Phenyl-ethyl)-1H-pyrazole-4-carboxylic acid [5-(1H-indol-2-yl)-6-oxo-1,6-dihydro-pyridin-3-yl]-amide], the concentration for half-maximal inhibition (IC50) was less than 100 nM.

On to `C[C@@H](c1ccccc1)n1cc(C(=O)Nc2c[nH]c(=O)c(-c3cc4cc(CN5CCCCC5)ccc4[nH]3)c2)cn1` [Example 162, 1-((S)-1-Phenyl-ethyl)-1H-pyrazole-4carboxylic acid [6-oxo-5-(5-piperidin-1-ylmethyl-1H-indol-2-yl)-1,6-dihydro-pyridin-3-yl]-amide], for which the half-maximal inhibitory concentration (IC50) is less than 100 nM.

For the compound `C[C@@H]1CN(Cc2ccc3[nH]c(-c4cc(NC(=O)c5cnn([C@@H](C)c6ccccc6)c5)c[nH]c4=O)cc3c2)C[C@H](C)O1` [Example 163, 1-((S)-1-Phenyl-ethyl)-1H-pyrazole-4-carboxylic acid {5-[5-(cis-2,6-dimethyl-morpholin-4-ylmethyl)-1H-indol-2-yl]-6-oxo-1,6-dihydro-pyridin-3-yl}-amide], the IC50 is less than 100 nM.

For the compound `C[C@@H](c1ccccc1)n1cc(C(=O)Nc2c[nH]c(=O)c(-c3cc4cc(CN5CCC(F)CC5)ccc4[nH]3)c2)cn1` [Example 164, 1-((S)-1-Phenyl-ethyl)-1H-pyrazole-4-carboxylic acid {5-[5-(4-fluoro-piperidin-1-ylmethyl)-1H-indol-2-yl]-6-oxo-1,6-dihydro-pyridin-3-yl}-amide], the IC50 is less than 100 nM.

Consider `CC1CCN(Cc2ccc3[nH]c(-c4cc(NC(=O)c5cnn([C@@H](C)c6ccccc6)c5)c[nH]c4=O)cc3c2)CC1` [Example 165, 1-((S)-1-Phenyl-ethyl)-1H-pyrazole-4-carboxylic acid {5-[5-(4-methyl-piperidin-1-ylmethyl)-1H-indol-2-yl]-6-oxo-1,6-dihydro-pyridin-3-yl}-amide], for which the concentration for half-maximal inhibition (IC50) was less than 100 nM.

With `CC1CCN(Cc2ccc3[nH]c(-c4cc(NC(=O)c5cnn([C@H](C)c6ccccc6)c5)c[nH]c4=O)cc3c2)CC1` [Example 167, 1-((R)-1-Phenyl-ethyl)-1H-pyrazole-4-carboxylic acid {5-[5-(4-methyl-piperidin-1-ylmethyl)-1H-indol-2-yl]-6-oxo-1,6-dihydro-pyridin-3-yl}-amide], the 50% inhibitory concentration (IC50) is less than 100 nM.

Regarding `C[C@H](c1ccccc1)n1cc(C(=O)Nc2c[nH]c(=O)c(-c3cc4cc(CN5CCCCC5)ccc4[nH]3)c2)cn1` [Example 168, 1-((R)-1-Phenyl-ethyl)-1H-pyrazole-4carboxylic acid [6-oxo-5-(5-piperidin-1-ylmethyl-1H-indol-2-yl)-1,6-dihydro-pyridin-3-yl]-amide], the IC50 is less than 100 nM.

Take `C[C@H](c1ccccc1)n1cc(C(=O)Nc2c[nH]c(=O)c(-c3cc4cc(CN5CCC(F)CC5)ccc4[nH]3)c2)cn1` [Example 169, 1-((R)-1-Phenyl-ethyl)-1H-pyrazole-4-carboxylic acid {5-[5-(4-fluoro-piperidin-1-ylmethyl)-1H-indol-2-yl]-6-oxo-1,6-dihydro-pyridin-3-yl}-amide]: the IC50 was less than 100 nM.

Regarding `CN(C)CCN(C)Cc1ccc2[nH]c(-c3cc(NC(=O)c4cnn(Cc5ccccc5)c4)c[nH]c3=O)cc2c1` [Example 170, 1-Benzyl-1H-pyrazole-4-carboxylic acid [5-(5-{1(2-dimethylamino-ethyl)-methyl-aminol-methyl}-1H-indol-2-yl)-6-oxo-1,6-dihydro-pyridin-3-yl]-amide], the IC50 is less than 100 nM.

`CN(C)[C@@H]1CCN(Cc2ccc3[nH]c(-c4cc(NC(=O)c5cnn(Cc6ccccc6)c5)c[nH]c4=O)cc3c2)C1` [Example 172, 1-Benzyl-1H-pyrazole-4-carboxylic acid {5-[5-((R)-3-dimethylamino-pyrrolidin-1-ylmethyl)-1H-indol-2-yl]-6-oxo-1,6-dihydro-pyridin-3-yl}-amide]: the 50% inhibitory concentration (IC50) is less than 100 nM.

On to `O=C(Nc1c[nH]c(=O)c(-c2cc3cc(CN4CC[C@@H](F)C4)ccc3[nH]2)c1)c1cnn(Cc2ccccc2)c1` [Example 174, 1-Benzyl-1H-pyrazole-4-carboxylic acid {5-[5-((R)-3-fluoro-pyrrolidin-1-ylmethyl)-1H-indol-2-yl]-6-oxo-1,6-dihydro-pyridin-3-yl}-amide], for which the 50% inhibitory concentration (IC50) is less than 100 nM.

As for `O=C(Nc1c[nH]c(=O)c(-c2cc3cc(CN4CC[C@H](F)C4)ccc3[nH]2)c1)c1cnn(Cc2ccccc2)c1` [Example 175, 1-Benzyl-1H-pyrazole-4-carboxylic acid {5-[5-((S)-3-fluoro-pyrrolidin-1-ylmethyl)-1H-indol-2-yl]-6-oxo-1,6-dihydro-pyridin-3-yl}-amide], the IC50 was less than 100 nM.

On to `CC(C)(COc1ccc2[nH]c(-c3cc(NC(=O)c4cnn(Cc5ccccc5)c4)c[nH]c3=O)cc2c1)CN1CCC(F)(F)C1` [Example 181, 1-Benzyl-1H-pyrazole-4-carboxylic acid (5-{5-[3-(3,3-difluoro-pyrrolidin-1-yl)-2,2-dimethyl-propoxy]-1H-indol-2-yl}-6-oxo-1,6-dihydro-pyridin-3-yl)-amide], for which the IC50 is less than 100 nM.

Turning to `CC(C)(COc1ccc2[nH]c(-c3cc(NC(=O)c4cnn(Cc5ccccc5)c4)c[nH]c3=O)cc2c1)CN1CC[C@@H](F)C1` [Example 182, 1-Benzyl-1H-pyrazole-4-carboxylic acid (5-{5-[3-((R)-3-fluoro-pyrrolidin-1-yl)-2,2-dimethyl-propoxy]-1H-indol-2-yl}-6-oxo-1,6-dihydro-pyridin-3-yl)-amide], the IC50 was less than 100 nM.

Consider `CC(C)(COc1ccc2[nH]c(-c3cc(NC(=O)c4cnn(Cc5ccccc5)c4)c[nH]c3=O)cc2c1)CN1CC[C@H](F)C1` [Example 183, 1-Benzyl-1H-pyrazole-4-carboxylic acid (5-{5-[3-((S)-3-fluoro-pyrrolidin-1-yl)-2,2-dimethyl-propoxyl]-1H-indol-2-yl}-6-oxo-1,6-dihydro-pyridin-3-yl)-amide], for which the 50% inhibitory concentration (IC50) was less than 100 nM.

As to `CC(C)(COc1ccc2[nH]c(-c3cc(NC(=O)c4cnn(Cc5ccccc5)c4)c[nH]c3=O)cc2c1)CN1CCOCC1` [Example 184, 1-Benzyl-1H-pyrazole-4-carboxylic acid {5-[5-(2,2-dimethyl-3-morpholin-4-yl-propoxy)-1H-indol-2-yl]-6-oxo-1,6-dihydro-pyridin-3-yl}-amide], the IC50 was less than 100 nM.

Consider `O=C(Nc1c[nH]c(=O)c(-c2cc3cc(OCC4(CN5CCCC5)CC4)ccc3[nH]2)c1)c1cnn(Cc2ccccc2)c1` [Example 187, 1-Benzyl-1H-pyrazole-4-carboxylic acid {6-oxo 5-[5-(1-pyrrolidin-1-ylmethyl-cyclopropylmethoxy)-1H-indol-2-yl]-1,6-dihydro-pyridin-3-yl}-amide], for which the half-inhibitory concentration (IC50) was less than 100 nM.

In the case of `CN(C)CC1(COc2ccc3[nH]c(-c4cc(NC(=O)c5cnn(Cc6ccccc6)c5)c[nH]c4=O)cc3c2)CC1` [Example 188, 1-Benzyl-1H-pyrazole-4-carboxylic acid {5-[5-(1-dimethylaminomethyl-cyclopropylmethoxy)-1H-indol-2-yl]-6-oxo-1,6-dihydro-pyridin-3-yl}-amide], the IC50 was less than 100 nM.
